Experimental data as given in US9051467B2, “Method of analysing a cell or other biological material containing a nucleic acid” (BIOSTATUS LIMITED, priority 2010, dated 2015).

Tests used:
[1] = Spectral properties (absorbance and fluorescence spectra); type: physicochemical; details: for Em peak / Ex peak: FIG. 1, in general terms (diagrammatically)
Description: (§1) These possible detection systems and others will now be described in more detail with reference to FIGS. 1 to 9. […] Therefore, the Compound of Formula (IIA) fluorescence is generally in the orange portion of the visible spectrum, whereas compound (IA) fluorescence is generally in the far red portion of the visible spectrum. […] The compound of Formula (IIA) is a cell permeant dye, and therefore it would be expected that the fluorescence signature B would be in connection with live or dead cells. […] As might perhaps be expected, it is only the fluorescence signature B associated with the cell permeant dye which is observed. […] It might be expected that a significant contribution of the observed fluorescence would emanate from the compound of Formula (IIA) dye. […] Therefore, the compound (IA) dye appears to quench the compound of Formula (IIA) signal. […] However, other mechanisms may play a role. The upshot is that it is possible to provide a “traffic light” system to indicate the state of a cell, wherein fluorescence in one spectral region A is associated with dead cells, and fluorescence in another spectral region B is associated with live cells.
Compound (IA) was synthesized using the principles described in Example 2 and stored at +4° C. as a stock solution of 5 mM compound (IA) dilution in buffer. Absorbance spectra were obtained using a spectrometer and a 20 μM solution of agent dissolved in PBS and measured in a 1 cm path quartz silica cuvette. Fluorescence spectra for a solution of 20 μM compound (IA) in a 1 cm path length semi-micro quartz cuvette were determined by excitation at 633, 589, 534, 488 nm. Fluorescence measurements were made on a Perkin Elmer LS50 spectrofluorometer with slit widths set at 10 nm. The spectrofluoremeter was equipped with a red-sensitive photomultiplier tube (Type R928; Hamamatsu Photonics KK, Japan. Data were accumulated and exported into a spread sheet to correct for the buffer control and to determine emission maxima. The results are shown in FIG. 8. Compound (IA) may be sub-optimally excited by wavelengths from 488 nm (in flow cytometry) and up to 647 nm (Exλmax 646 nm). Typically, for cell imaging, excitation is performed with either 633 nm or 647 nm wavelengths. Emission spectra are independent of excitation wavelength, ie, all the emission spectra are identical irrespective of excitation wavelength.

[2] = test system: live cells and dead cells; assay: Cell permeant/cell impermeant dye combination staining of live and dead cells; type: cell-based; set-up: key to Live cell stain / Dead cell stain: +: positive; −: negative; details: for Dead cell stain / Live cell stain: combination staining pattern, predicted
Description: It will be appreciated that this provides the opportunity to perform numerous advantageous two-colour, two-fluorochrome experiments. Moreover, the present inventors have realised that dye combinations of this type also provide a platform for performing a range of advantageous experiments using one or more further fluorochromes.
as §1

[3] = test system: DoHH2 cultures treated with VP-16; assay: Combination tracking of cell status with compound (IA) plus compound (IIA), flow cytometry; type: cell-based, human; details: 20 μM compound (IIA) and 4 μM compound (IA), 10 minutes, VP-16 0.25 μM
Experimental: Cell culture and drug treatment: A human follicular B-lymphoma cell line was used in this study. DoHH2 was routinely maintained in RPMI 1640 supplemented with 5% FCS and 100 U ml-1 penicillin, 100 μgml^−1 streptomycin, and 2 mM glutamine. The cells were passaged twice weekly at an initiating density of 5×10^4 cells ml^−1 cultured at 37° C. in a humidified atmosphere of 5% CO2/95% air. Cells were set at 5×10^5 cells/per ml and exposed to VP-16 doses (0.25 μM) to induce apoptosis. 20 μM Compound (IIA) and 4 μM compound (IA) were added to 1 ml of cells and incubated under standard culture conditions for 10 minutes. The samples were analysed by flow cytometry.
A FACS Vantage flow cytometer (as for example above) was used. Compound (IIA) and compound (IA) fluorescent signals derived from 488 nm excitation were detected in linear mode at FL2 for Compound (IIA) (585/42 nm filters); compound (IA) signal derived from 488 nm were detected in linear mode at FL3 with a 695LP filter and a FL1/2 560 nm SP dichroic SP to determine scatter properties. Signals for forward and side scatter and fluorescence were collected for 10,000 cells using the forward light scatter parameter as the master signal. Contour plots of side versus forward scatter depict two populations of cells. The addition of Compound (IIA) and compound (IA) provide functional status of these cultures. […]

human Jurkat cells = assay: Multi-parameter JC-1 / compound (IA) analysis of staurosporine treated cells; type: cell-based; details: 3 μM with JC-1, Jurkat cells, 1 μM staurosporine for 4 hours
Description: In this example, the dye JC-1 (5,5′,6,6′-tetrachloro-1,1′,3,3′-tetraethylbenzimidazol-carbocyanine iodide) is a lipophilic fluorescent cation that incorporates into the mitochondrial membrane, where it can form aggregates due to the physiological maintenance membrane potential of mitochondria. Aggregation modifies the fluorescence properties of JC-1 leading to a shift from green to orange fluorescence. Flow cytometry or imaging was used to monitor the decrease of the orange fluorescence and an increase of the green fluorescence allowing apoptotic cells to be distinguished from non-apoptotic cells.
Cell culture and drug treatment: A Jurkat cell line was used in this study Jurkat cultures was routinely maintained in RPMI 1640 supplemented with 10% FCS and 100 U ml-1 penicillin, 100 μg ml-1 streptomycin, and 2 mM glutamine. […] These were then analysed by flow cytometry or placed into a Nunc, 2 Well Lab-Tek II, (Fisher Scientific) and analysed by three channel confocal microscopy.
Multi-parameter flow cytometry of staurosporine treated cells A FACS Vantage flow cytometer (as for example above). […] JC-1 two parameter fluorescent signal were derived from 488 nm excitation were detected in logarithmic mode Green J-monomer was detected using FL1 (530/30 nm emission); Orange J-aggregate was detected using FL2 (585/42 nm emission). […]

[4] = test system: fixed U-2 OS human osteosarcoma cells; assay: Nuclear staining of fixed cells by fluorescence microscopy; type: cell-based; details: 20 μM, cells fixed with 4% paraformaldehyde
Experimental: Cell culture: Human osteosarcoma cells U-20S (ATCC HTB-96) cells (adherent) were cultured in McCoy's 5a medium supplemented with 10% foetal calf serum (FCS), 1 mM glutamine, and antibiotics and incubated at 37° C. in an atmosphere of 5% CO2 in air. For fluorescence imaging experiments, cells were grown at a density of 1×10^5 cells ml^−1 as a monolayer in coverglass bottomed chambers (Nunc, 2 Well Lab-Tek II, Fisher Scientific). Imaging: Following a 24 hour period cells were then fixed with 4% paraformaldehyde in PBS for 15-30 min at room temperature. No washing step is required. Compound (IA) was used in a manner appropriate to being the final staining procedure, after any treatment. Compound (IA) was added directly at 20 μM in to a 0.5 ml PBS overlay of the adherent cells. Cells were directly viewed using wide-field fluorescence microscopy. Chambers were placed onto an Axiovert 100 microscope (Carl Zeiss, Welwyn Garden City, UK and using a 40×, 1.3 NA oil immersion plan apochromat lens).fluorescence images (Ex: 620/60 nm; Em 700/75 nm) nm captured using an ORCA-ER CCD camera (Hamamatsu, Reading, UK) and MetaMorph (MDS, USA) acquisition software. […] The compound (IA) staining of nuclei were segmented using a simple threshold algorithm which depict the nuclei, and provide binary or mask information of each nucleus (object) localization. […]

Exλmax ([1]; 20 μM solution in PBS) | Em peak [1] | Ex peak [1] | Compound | Cell permeation property [2] | Dead cell stain [2] | Live cell stain [2] | Cell fraction identified [3] | Discrimination of early and late apoptosis sub-fractions (human Jurkat cells) | Nuclear localisation of dye [4] | Fluorescence observed in dead cells ([2]; in combination with compound (IA))
646 nm | 660 nm | 620 nm | 1,5-Bis{[2-(trimethylamino)ethyl]amino}-5,8-dihydroxyanthracene-9,10-dione iodide [Compound (IA)] | cell impermeant | + | − | identifies the non-intact cell fraction | can depict these sub-fractions | localization of high levels of compound (IA) in the nucleus | 
 | 615 nm | 518 nm | CN(C)CCNc1cccc2c1C(=O)c1cccc(NCCN(C)C)c1C2=O [Compound (IIA), 1,5-Bis{[2-(dimethylamino)ethyl]amino}anthracene-9,10-dione] | cell permeant | − | + | positive cells represent the live cell (viable) fraction |  |  | little or no fluorescence
